In assay [1] the target is T1, β3Gal-T5 (Homo sapiens, UniProt Q9Y2C3, M85T).
T1 construct: designed to exclude the hydrophobic transmembrane segment and to encode amino acid residues 25-310; secretion signal of vector pAcGP67B (gp67); made in house; host or cells: baculovirus; Sf9 cells (media) and High Five cells (serum-free medium, partially purified)
T1 sequence (Q9Y2C3 25-310 M85T): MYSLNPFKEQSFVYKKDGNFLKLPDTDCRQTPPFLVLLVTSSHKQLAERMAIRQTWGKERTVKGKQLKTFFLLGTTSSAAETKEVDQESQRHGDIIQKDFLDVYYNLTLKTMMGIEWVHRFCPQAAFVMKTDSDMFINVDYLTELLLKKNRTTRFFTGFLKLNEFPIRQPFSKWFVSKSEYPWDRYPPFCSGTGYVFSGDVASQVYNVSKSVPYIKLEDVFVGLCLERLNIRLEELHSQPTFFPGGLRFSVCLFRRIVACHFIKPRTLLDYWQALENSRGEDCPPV
The assay can be described thus: Galactosyltransferase assay, partially purified secreted recombinant β3Gal-T5, saccharide acceptors. Type of assay: biochemical. To be noted: for β3Gal-T5 activity, substrate concentration 1 mM: acceptor 1 mM; for β3Gal-T5 activity, substrate concentration 5 mM: acceptor 5 mM; for donor substrate utilisation by β3Gal-T5: with the acceptor substrates tested (data not shown). From the text: PCR product was cloned into the BamHI site of pAcGP67B (Pharmingen). […] This PCR product was cloned into the BamHI site of pVL1193 (Pharmingen). Both soluble and full length constructs were fully sequenced to confirm fidelity. Plasmids […]5-full were co-transfected with Baculo-GoldTM DNA (Pharmingen) as described previously (Bennett, […]. and Clausen, H. cDNA cloning and expression of a novel human UDP-N-acetyl-alpha-D-galactosamine. Polypeptide N-acetyl-galactosaminyl-transferase, GalNAc-T3. J. Biol. Chem. 271:17006-17012, 1996). Recombinant Baculo-virus were obtained after two successive amplifications in Sf9 cells grown in serum-containing medium, and titers of virus were estimated by titration in 24-well plates with monitoring of enzyme activities. […] J. Biol. […] J. Biol. […] Polypeptide N-acetyl-galactosaminyl-transferase, GalNAc-T3. J. Biol. Chem. 271:17006-17012, 1996). For large scale expression amplified virus was used to infect High FiveTM cells grown in serum-free media (Invitrogen) in upright roller bottles shaking at 140 rpm and 27° C. The kinetic properties were determined with partially purified, secreted forms of the enzymes. Semipurification of enzymes from serum-free medium of infected High-FiveTM cells was performed by sequential Amberlite, DEAE-Sephacel and 5-Sepharose chromatography as described previously ([…]., et al. […] J. Biol. Chem. 272:23503-23514, 1997). Comparisons of enzymes were performed relatively to the activity obtained with βGlcNAc-Bz1 (Tables II and III). Full length enzymes were assayed with 1% Triton CF54 homogenates of washed cells. […] Reaction products were quantified by Dowex-1 chromatography. […] P. and Clausen, H. […] J. Biol. Chem. 273:29295-29305, 1998). The transfer of Gal was evaluated after acid precipitation by filtration through Whatman GF/C glass fibre filters. […] Assays with glycolipid acceptors were conducted as previously described (Holmes, E. H. […] Arch Biochem Biophys 270:630-646, 1989) in reaction mixtures containing 2.5 μmol HEPES buffer, pH 7.2, μmol MnCl2, 100 μg taurodeoxycholate or Triton CF-54, 20 μg acceptor glycolipid, 15 nmol UDP-[^14C]-galactose (13,000 cpm/nmol) and enzyme in a total volume of 100 μl. Conditions for incubation and product isolation were as previously described (Id.).

Assay [2] deals with T1, β3Gal-T5. The assay can be described thus: Galactosyltransferase assay with glycolipid acceptors, β3Gal-T5. The assay is classed as biochemical. The conditions noted are these: for β3Gal-T5 activity with glycolipid acceptor, Triton CF-54: 100 μg Triton CF-54/100 μl; for β3Gal-T5 activity with glycolipid acceptor, Triton CF-54 / β3Gal-T5 activity with glycolipid acceptor, TDOC: 20 μg glycolipid; for β3Gal-T5 activity with glycolipid acceptor, TDOC: 100 μg taurodeoxycholate/100 μl. The protocol: The kinetic properties were determined with partially purified, secreted forms of the enzymes. Semipurification of enzymes from serum-free medium of infected High-Five™ cells was performed by sequential Amberlite, DEAE-Sephacel and 5-Sepharose chromatography as described previously (Wandall, H. H., Hassan, H., Mirgorodskaya, E., et al. Substrate specificities of three. members of the human UDP-N-acetyl-alpha-D-galactosamine:Polypeptide Nacetylgalactosaminyltransferase family, GalNAc-T1, -T2, and -T3. J. Biol. Chem. 272:23503-23514, 1997). Comparisons of enzymes were performed relatively to the activity obtained with βGlcNAc-Bz1 (Tables II and III). Full length enzymes were assayed with 1% Triton CF54 homogenates of washed cells. Enzyme assays were performed in 50 μl total reaction mixtures containing 25 mM Cacodylate (pH 7.5), 10 mM MnCl2, 0.25% Triton X-100, 100 μM UDP-[^14C]-Gal (2,600 cpm/nmol) (Amersham), and varying concentrations of acceptor substrates (Sigma) (see Table I for structures). Reaction products were quantified by Dowex-1 chromatography. […] The transfer of Gal was evaluated after acid precipitation by filtration through Whatman GF/C glass fibre filters. […] Assays with glycolipid acceptors were conducted as previously described (Holmes, E. H. Characterization and membrane organization of beta 1-3- and beta 1-4-galactosyltransferases from human colonic adenocarcinoma cell lines Cob 205 and SW403: basis for preferential synthesis of type 1 chain lacto-series carbohydrate structures. Arch Biochem Biophys 270:630-646, 1989) in reaction mixtures containing 2.5 μmol HEPES buffer, pH 7.2, μmol MnCl2, 100 μg taurodeoxycholate or Triton CF-54, 20 μg acceptor glycolipid, 15 nmol UDP-[^14C]-galactose (13,000 cpm/nmol) and enzyme in a total volume of 100 μl. Conditions for incubation and product isolation were as previously described (Id.).

Like-named read-outs stand apart in the source and are kept apart here.

21 compounds from patent publication US7332279B2 (Glycozym APS, priority 1999, dated 2008) can be followed below.

For orientation: Vmax means the top rate of the reaction or transport when substrate is in excess. In general, Km refers to the concentration of substrate that gives half-maximal velocity.

Turning to `CO[C@@H]1O[C@H](CO)[C@H](O)[C@H](O[C@@H]2O[C@H](CO)[C@@H](O)[C@H](O)[C@H]2NC(C)=O)[C@H]1O` [β-D-GlcNAc-(1–3)-β-D-Gal-1-Me], in assay [1] (Table V), the Vmax worked out at 972.9 pmol/min. Moreover, the Km in assay [1] (Table V, read-out: Km) is 1.8 mM. Moreover, in assay [1], the “β3Gal-T5 activity, substrate concentration 1 mM” value was determined as 27.4 nmol/min/mL and the “β3Gal-T5 activity, substrate concentration 5 mM” value was determined as 87.4 nmol/min/mL. Moreover, the Km in assay [1] (acceptor substrate, read-out: apparent Km of β3Gal-T5) turned out to be 1.8 mM.

Consider `CC(=O)N[C@H]1[C@H](Oc2ccc([N+](=O)[O-])cc2)O[C@H](CO)[C@@H](O)[C@@H]1O` [β-D-GlcNAc-1-p-Nph], for which, in assay [1], the “β3Gal-T5 activity, substrate concentration 1 mM” value came to 2.1 nmol/min/mL and the “β3Gal-T5 activity, substrate concentration 5 mM” value came to 6.9 nmol/min/mL.

For the compound “GlcNAcβ1-3Galβ1-4G1cNAcβ1-3Galβ1-4Glcβ1-Cer [nLC5]”, in assay [2], the “activity, fold lower than with Lc3” value is reported as roughly 3 fold; the “β3Gal-T5 activity with glycolipid acceptor, Triton CF-54” value (“β3Gal-T5 activity … Triton CF-54” for short) was found to be 0.4 µmol/h/mg; the “β3Gal-T5 activity with glycolipid acceptor, TDOC” value (“β3Gal-T5 activity … TDOC” for short) worked out at 1.6 µmol/h/mg.

Turning to `CC(=O)NC1C(OC2C(O)OC(CO)C(O)C2O)OC(CO)C(O)C1O` [β-D-GlcNAc-(1–2)-α-D-Man], in assay [1], the “β3Gal-T5 activity, substrate concentration 1 mM” value came to 0.0 nmol/min/mL and the “β3Gal-T5 activity, substrate concentration 5 mM” value was found to be 3.0 nmol/min/mL.

For the compound `CC(=O)N[C@@H]1[C@@H](O)[C@H](O)[C@@H](CO)O[C@@H]1O` [D-GIcNAc], in assay [1], the “β3Gal-T5 activity, substrate concentration 1 mM” value is 0.5 nmol/min/mL and the “β3Gal-T5 activity, substrate concentration 5 mM” value was 1.2 nmol/min/mL.

Take `CC(=O)N[C@H]1[C@@H](OCc2ccccc2)O[C@H](CO)[C@@H](O)[C@@H]1O` [α-D-GlcNAc-Bzl]: in assay [1], the “β3Gal-T5 activity, substrate concentration 1 mM” value came to 0.0 nmol/min/mL and the “β3Gal-T5 activity, substrate concentration 5 mM” value turned out to be 0.0 nmol/min/mL.

As to `O=[N+]([O-])c1ccccc1O[C@@H]1O[C@H](CO)[C@H](O)[C@H](O)[C@H]1O` [β-D-Gal-1-o-Nph], in assay [1], the “β3Gal-T5 activity, substrate concentration 1 mM” value worked out at 0.0 nmol/min/mL and the “β3Gal-T5 activity, substrate concentration 5 mM” value amounted to 0.0 nmol/min/mL.

As for `CC(=O)N[C@H]1[C@@H](OP(=O)(O)OP(=O)(O)OC[C@H]2O[C@@H](n3ccc(=O)[nH]c3=O)[C@H](O)[C@@H]2O)O[C@H](CO)[C@H](O)[C@@H]1O` [UDP-GalNAc], the “donor substrate utilisation by β3Gal-T5” value in assay [1] is “did not utilize”.

In the case of `Cc1cc(=O)oc2cc(O[C@@H]3OC[C@@H](O[C@@H]4O[C@H](CO)[C@H](O)[C@H](O)[C@H]4O)[C@H](O)[C@H]3O)ccc12` [β-Gal-(1–4)-β-D-Xyl-1-Me-umb], in assay [1], the “β3Gal-T5 activity, substrate concentration 1 mM” value amounted to 0.0 nmol/min/mL and the “β3Gal-T5 activity, substrate concentration 5 mM” value came out at 0.0 nmol/min/mL.

For Glcβ1-Cer [GlcCer], the “β3Gal-T5 activity … TDOC” value in assay [2] worked out at 0.04 µmol/h/mg.

Regarding `CC(=O)N[C@H]1[C@H](Oc2ccc3c(C)cc(=O)oc3c2)O[C@H](CO)[C@H](O)[C@@H]1O` [β-D-GalNAc-Me-umb], in assay [1], the “β3Gal-T5 activity, substrate concentration 1 mM” value stood at 0.0 nmol/min/mL and the “β3Gal-T5 activity, substrate concentration 5 mM” value was 0.0 nmol/min/mL.

For the compound `CC(=O)N[C@H]1[C@@H](OCc2ccccc2)O[C@H](CO)[C@H](O)[C@@H]1O` [α-D-GalNAc-Bzl], in assay [1], the “β3Gal-T5 activity, substrate concentration 1 mM” value worked out at 0.0 nmol/min/mL and the “β3Gal-T5 activity, substrate concentration 5 mM” value worked out at 0.0 nmol/min/mL.

As to `CC(=O)N[C@H]1[C@H](Oc2ccc3c(C)cc(=O)oc3c2)O[C@H](CO)[C@@H](O)[C@@H]1O` [β-D-GlcNAc-Me-umb], in assay [1], the “β3Gal-T5 activity, substrate concentration 1 mM” value was found to be 2.6 nmol/min/mL and the “β3Gal-T5 activity, substrate concentration 5 mM” value was 7.5 nmol/min/mL.

Turning to `CC(=O)NC1C(OC2C(OCC3OC(O)C(O)C(OC4OC(CO)C(O)C(O)C4OC4OC(CO)C(O)C(O)C4NC(C)=O)C3O)OC(CO)C(O)C2O)OC(CO)C(O)C1O` [β-D-GlcNAc-(1–2)-α-D-Man-(1–3)-[β-D-GlcNAc-(1–2)-α-D-Man-(1–6)-]D-Man], in assay [1], the “β3Gal-T5 activity, substrate concentration 1 mM” value came out at 0.0 nmol/min/mL and the “β3Gal-T5 activity, substrate concentration 5 mM” value was found to be 0.0 nmol/min/mL.

With `Cc1cc(=O)oc2cc(O[C@@H]3O[C@H](CO)[C@@H](O)[C@H](O)[C@H]3O)ccc12` [β-D-Glc-Me-umb], in assay [1], the “β3Gal-T5 activity, substrate concentration 1 mM” value came out at 0.0 nmol/min/mL and the “β3Gal-T5 activity, substrate concentration 5 mM” value was 0.0 nmol/min/mL.

With `COC1OC(COC2OC(CO)C(O)C(O)C2NC(C)=O)C(O)C(O)C1O` [β-D-GlcNAc-(1–6)-α-D-Man-1-Me], in assay [1], the “β3Gal-T5 activity, substrate concentration 1 mM” value was 4.0 nmol/min/mL and the “β3Gal-T5 activity, substrate concentration 5 mM” value is 13.0 nmol/min/mL.

Take `O=[N+]([O-])c1ccccc1O[C@H]1O[C@H](CO)[C@H](O)[C@H](O)[C@H]1O` [α-D-Gal-1-o-Nph]: in assay [1], the “β3Gal-T5 activity, substrate concentration 1 mM” value was 0.0 nmol/min/mL and the “β3Gal-T5 activity, substrate concentration 5 mM” value is 0.0 nmol/min/mL.

As for `CC(=O)N[C@@H]1[C@@H](O)[C@H](O)[C@@H](CO)O[C@H]1Sc1ccc([N+](=O)[O-])cc1` [β-D-GlcNAc-1-thio-p-Nph], in assay [1], the “β3Gal-T5 activity, substrate concentration 1 mM” value is 1.1 nmol/min/mL and the “β3Gal-T5 activity, substrate concentration 5 mM” value was determined as 3.4 nmol/min/mL.

With GalNAcβ1-3Galα1-4Galβ1-4Glcβ1-Cer [Gβ4], in assay [2], the “β3Gal-T5 activity … Triton CF-54” value was 0.09 µmol/h/mg and the “β3Gal-T5 activity … TDOC” value is 0.6 µmol/h/mg.

For `CC(=O)N[C@H]1[C@@H](OP(=O)(O)OP(=O)(O)OC[C@H]2O[C@@H](n3ccc(=O)[nH]c3=O)[C@H](O)[C@@H]2O)O[C@H](CO)[C@@H](O)[C@@H]1O` [UDPGlcNAc], the “donor substrate utilisation by β3Gal-T5” value in assay [1] was “did not utilize”.

On to GalNAcβ1-4Galβ1-4Glcβ1-Cer [Gg3], for which, in assay [2], the “β3Gal-T5 activity … Triton CF-54” value was found to be 0.005 µmol/h/mg and the “β3Gal-T5 activity … TDOC” value was 0.09 µmol/h/mg.
